# According to patent US11932632B1, “N'-(2-(5-phenyl-1,3,4-oxadiazol-2-ylthio)acetoxy)benzo[d][1,3]dioxole-5 carboximidamide as an antimicrobial compound” (KING FAISAL UNIVERSITY, priority 2023, dated 2024):
# Columns and labels:
# Assay type in all cases: cell-based
# [1] = tested on: Aspergillus flavus; experiment: Agar plate disc-diffusion, antifungal activity by inhibition zone; conditions: Sabouraud's dextrose agar, 37° C., 72 h, DMSO zone subtracted
# Experimental: (§1) The agar plate disc-diffusion method was applied. […] The discs were then placed onto the surface of agar plates (nutrient agar for bacteria and Sabouraud's dextrose agar for fungi) seeded with the test organism. Each plate contained 15 mL of the agar medium, previously seeded with 0.2 mL of the broth culture of each organism pregrown for 18 hours. The plates were incubated at 37° C. for 48 h, and 72 h for fungi. The inhibition zones were measured in mm. Discs impregnated with DMSO were used as a control, and its inhibition zone was subtracted from the tested compound actual inhibition zone.
# (§2) The results of the antimicrobial testing can be observed in Tables 1 and 2, below, using ciprofloxacin as a reference.
# [2] = tested on: Chrysosporium keratinophilum; experiment: as above; conditions: Sabouraud's dextrose agar, 37° C., 72 h, DMSO zone subtracted
# Experimental: as §1, §2
# [3] = tested on: Escherichia coli; experiment: Agar plate disc-diffusion, antibacterial activity by inhibition zone; conditions: nutrient agar, 37° C., 48 h, DMSO zone subtracted
# Experimental: as §1, §2
# [4] = tested on: Staphylococcus aureus; experiment: as above; conditions: nutrient agar, 37° C., 48 h, DMSO zone subtracted
# Experimental: as §1, §2
# [5] = tested on: Pseudomonas aeruginosa; experiment: as above; conditions: nutrient agar, 37° C., 48 h, DMSO zone subtracted
# Experimental: as §1, §2
# [6] = tested on: Bacillus Cereus; experiment: as above; conditions: nutrient agar, 37° C., 48 h, DMSO zone subtracted
# Experimental: as §1, §2
# [7] = A = concentration of comp. = 10,000 μL
# [8] = B = concentration of comp. = 30.000 μL
# [9] = C = concentration of comp. = 50,000 μL
smiles,measurement,setting,value
"N/C(=N\OC(=O)CSc1nnc(-c2ccccc2)o1)c1ccc2c(c1)OCO2 [Compound 3, N′-(2-(5-phenyl-1,3,4-oxadiazol-2-ylthio)acetoxy)benzo[d][1,3]dioxole-5-carboximidamide]","inhibition zone, Aspergillus flavus, A",[1]; [7],21 mm
same,"inhibition zone, Aspergillus flavus, B",[1]; [8],25 mm
same,"inhibition zone, Aspergillus flavus, C",[1]; [9],36 mm
same,"inhibition zone, Chrysosporium keratinophilum, A",[2]; [7],25 mm
same,"inhibition zone, Chrysosporium keratinophilum, B",[2]; [8],27 mm
same,"inhibition zone, Chrysosporium keratinophilum, C",[2]; [9],42 mm
same,"inhibition zone, Escherichia coli, A",[3]; [7],29 mm
same,"inhibition zone, Escherichia coli, B",[3]; [8],33 mm
same,"inhibition zone, Escherichia coli, C",[3]; [9],49 mm
same,"inhibition zone, Staphylococcus aureus, A",[4]; [7],18 mm
same,"inhibition zone, Staphylococcus aureus, B",[4]; [8],21 mm
same,"inhibition zone, Staphylococcus aureus, C",[4]; [9],37 mm
same,"inhibition zone, Pseudomonas aeruginosa, A",[5]; [7],24 mm
same,"inhibition zone, Pseudomonas aeruginosa, B",[5]; [8],27 mm
same,"inhibition zone, Pseudomonas aeruginosa, C",[5]; [9],39 mm
same,"inhibition zone, Bacillus Cereus, A",[6]; [7],25 mm
same,"inhibition zone, Bacillus Cereus, B",[6]; [8],29 mm
same,"inhibition zone, Bacillus Cereus, C",[6]; [9],39 mm
